The text below walks through data of ChEMBL document CHEMBL5214915 (Eur J Med Chem, 2021).

What all share (format): functional
Experiment [1] concerns Mycobacterium tuberculosis variant bovis. Description: Antibacterial activity against Mycobacterium bovis BCG incubated for 1 week in 7H9/ADC/Tw medium in presence of 0.1 mM chorismate.
Experiment [2] shares this test system. The experiment is described as follows: Antibacterial activity against Mycobacterium bovis BCG incubated for 1 week in 7H9/ADC/Tw medium in presence of 0.1 mM indole.
Experiment [3] has the same test system. Description: Antibacterial activity against Mycobacterium bovis BCG incubated for 1 week in 7H9/ADC/Tw medium in presence of 0.1 mM anthranilate.
For experiment [4] the test system is unchanged. The experiment is described as follows: Antibacterial activity against Mycobacterium bovis BCG incubated for 1 week in 7H9/ADC/Tw medium in presence of 0.1 mM Trp.
For experiment [5] the test system is unchanged. Description: Antibacterial activity against Mycobacterium bovis BCG incubated for 1 week in 7H9/ADC/Tw medium.
For experiment [6] the test system is unchanged. The experiment is described as follows: Antibacterial activity against Mycobacterium bovis BCG incubated for 1 week in 7H9/ADC/Tw medium in presence of 0.5 mM chorismate.
Where [7] appears, read: Mycobacterium tuberculosis variant bovis, BCG, 168 h, read-out: MIC.

The structures appear in SMILES notation. Values after ≈ are worked out from the molar mass of the structure shown.

Broadly, the MIC is the least concentration at which growth counts as inhibited. Regarding `Nc1cccc(F)c1C(=O)O`, the minimal inhibitory concentration (MIC) was 6.4 µM in experiment [1] (setting [7]); greater than 50 µM in experiment [2] (setting [7]); greater than 50 µM in experiment [3] (setting [7]); greater than 50 µM in experiment [4] (setting [7]); 6.4 µM (≈ 0.993 µg/mL) in experiment [5] (setting [7]); 6.4 µM in experiment [6] (setting [7]).
As to `Nc1cccc(F)c1C(=O)NNc1ccccc1`, the MIC in experiment [1] (setting [7]) is 8.15 µM; in experiment [2] (setting [7]) it was greater than 50 µM; in experiment [3] (setting [7]), greater than 50 µM; in experiment [4] (setting [7]) it was greater than 50 µM; in experiment [5] (setting [7]) it was 2 µM (≈ 0.491 µg/mL); in experiment [6] (setting [7]), 8.15 µM.
Consider `Cl.Nc1cccc(F)c1C(=O)NNc1ccccc1`, for which the minimal inhibitory concentration (MIC) in experiment [1] is 7.1 µM; in experiment [2], greater than 50 µM; in experiment [3], greater than 50 µM; in experiment [4] it was greater than 50 µM; in experiment [5], 3.5 µM; in experiment [6] it was 14.2 µM.
On to `Nc1cccc(F)c1C(=O)NNc1c(Cl)cc(Cl)cc1Cl`, for which the MIC in experiment [1] (setting [7]) was 45.9 µM; in experiment [2] (setting [7]), greater than 50 µM; in experiment [3] (setting [7]), greater than 50 µM; in experiment [4] (setting [7]), greater than 50 µM; in experiment [5] (setting [7]), 22.9 µM (≈ 7.98 µg/mL); in experiment [6] (setting [7]), 45.9 µM.
